Reference: patent publication US8022064B2, “Phenylpentadienoyl derivatives and their use as PAR 1 antagonists” (Pierre Fabre Medicament, priority 2006, dated 2011)

Each compound was assayed against T1, PAR-1 receptor (Cricetulus griseus, UniProt A0A8C2QJ57) (assay: Calcium release (FLIPR) antagonism of SFLLR-activated PAR-1 in CHO cells). Settings: SFLLR agonist, Schild method from EC50 shifts at three concentrations, read-out: pA2 (converted).
T1 construct: Chinese hamster ovarian (CHO) cells constituently express PAR-1 receptor; endogenous in cells; host or cells: CHO cells
T1 sequence (A0A8C2QJ57 22-428): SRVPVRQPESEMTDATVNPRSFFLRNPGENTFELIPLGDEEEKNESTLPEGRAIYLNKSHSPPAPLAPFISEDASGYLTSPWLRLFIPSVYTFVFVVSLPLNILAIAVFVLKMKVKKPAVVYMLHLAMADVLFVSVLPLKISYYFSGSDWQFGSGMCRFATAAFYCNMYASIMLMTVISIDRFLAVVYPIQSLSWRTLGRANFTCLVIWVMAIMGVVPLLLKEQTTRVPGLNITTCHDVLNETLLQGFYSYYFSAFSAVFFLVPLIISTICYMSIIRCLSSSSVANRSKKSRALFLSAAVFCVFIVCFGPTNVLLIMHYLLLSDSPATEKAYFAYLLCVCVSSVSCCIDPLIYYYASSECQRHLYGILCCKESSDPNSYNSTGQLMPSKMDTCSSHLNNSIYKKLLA
Type: cell-based, Chinese hamster
Experimental: In a variety of cell types, activation of PAR-1 receptors by the SFLLR peptide (a selective PAR-1 agonist) triggers an intracellular signal cascade leading to the release of calcium by the endoplasmic reticulum. Chinese hamster ovarian (CHO) cells constituently express PAR-1 receptor. In this cell line, the release of calcium consecutive to receptor activation by SFLLR is measured by a fluorometry technique (fluorometric imaging plate reader, or FLIPR) using a selective probe for calcium (Fluo-3AM). The emission of fluorescence is pharmacologically proportional to the efficiency of the PAR-1 agonist and to its concentration.
Culture medium: Ham's F-12 (Ham, R. G., Proc. Nat. Acad. Sci. 1965, 53: 288) supplemented with 10% fetal calf serum and […].
Fluorescent probe: Fluo-3AM (4 μM; Teflabs, Austin, Tex., USA)
Agonist: SFLLR-NH2 (Serine, phenylalanine, leucine, leucine, arginine).
Methods: CHO cells are inoculated in 96-well plates (60,000 cells per well) in the presence of 200 μl of culture medium for 24 hours. The cells are incubated with the calcium fluorescent probe for 1 hour at 37° C. The cells are then washed 10 minutes before the signal is measured. PAR-1 antagonist is then injected (0.01 μM to 10 μM). The plates are placed in the FLIPR (Molecular Devices, UK) to measure calcium fluorescence at two wavelengths (488 nm and 540 nm: Sullivan et al., Calcium Signaling Protocols 1999, 125-136). Measurements are taken for 5 min before the antagonist is added and for 10 min following its administration. Maximum fluorescence minus baseline fluorescence is measured in 4 different wells. The test is carried out in duplicate. Under these conditions, the derivatives of the present invention were identified as PAR-1 receptor antagonists (antagonism >60% of the calcium signal at 10 μM). The dose-response curves (0.01 μM to 32 μM) obtained with the SFLLR agonist allowed determination of the effective concentration inducing 50% of the maximum effect (EC50). The strengths (pA2) of some of the PAR-1 antagonists described in the present invention were calculated using the method of Arunlakshana and Schild (Brit. J. Pharmacol., 1959, 14: 48-58) from the EC50 shifts observed at three concentrations.

Row | Structure (SMILES) | Kb
1 | N#Cc1ccccc1/C=C/C=C/C(=O)N1CCN(C2CCCC2)CC1 [Example 2, 2-[5-(4-Cyclopentyl-piperazin-1-yl)-5-oxo-penta-1,3-dienyl]-benzonitrile] | 234 nM
2 | N#Cc1ccccc1/C=C/C=C/C(=O)N1CCN(c2ccccn2)CC1 [Example 1, 2-[5-Oxo-5-(4-pyridin-2-yl-piperazin-1-yl)-penta-1,3-dienyl]-benzonitrile] | 316 nM
3 | O=C(/C=C/C=C/c1ccccc1[N+](=O)[O-])N1CCN(c2ccccc2)CC1 [Example 16, 5-(2-Nitro-phenyl)-1-(4-phenyl-piperazin-1-yl)-penta-2,4-dien-1-one] | 58.9 nM
4 | O=C(C=CC=Cc1ccccc1[N+](=O)[O-])N1CCN(c2ccccn2)CC1 [Example 21, 5-(2-Nitro-phenyl)-1-(4-pyridin-2-yl-piperazin-1-yl)-penta-2,4-dien-1-one] | 77.6 nM
5 | O=C(/C=C/C=C/c1ccccc1Cl)N1CCN(C2CCCC2)CC1 [Example 9, 5-(2-Chloro-phenyl)-1-(4-cyclopentyl-piperazin-1-yl)-penta-2,4-dien-1-one] | 229 nM
6 | O=C(/C=C/C=C/c1ccccc1[N+](=O)[O-])N1CCN(C2CCCC2)CC1 [Example 18, 1-(4-Cyclopentyl-piperazin-1-yl)-5-(2-nitro-phenyl)-penta-2,4-dien-1-one] | 69.2 nM
